Columns and labels:
[1] = system: Uterine Eosinophil Peroxidase (EPO); assay: Uterine Eosinophil Peroxidase (EPO) Assay; type: in vivo, rat
Source text: (§1) Seventy-five day old female Sprague Dawley rats (weight range of 200 to 225g) were obtained from Charles River Laboratories (Portage, Mich.). The animals were either bilaterally ovariectomized (OVX) or exposed to a Sham surgical procedure at Charles River Laboratories, and then shipped after one week. Upon arrival, they were housed in metal hanging cages in groups of 3 or 4 per cage and had ad libitum access to food (calcium content approximately 0.5%) and water for one week. Room temperature was maintained at 22.20°±1.7° C. with a minimum relative humidity of 40%. The photoperiod in the room was 12 hours light and 12 hours dark.
(§2) Dosing Regimen Tissue Collection. After a one week acclimation period (therefore, two weeks post-OVX) daily dosing with test compound was initiated. 17α-ethynyl estradiol or the test compound were given orally, unless otherwise stated, as a suspension in 1% carboxymethylcellulose or dissolved in 20% cyclodextrin. Animals were dosed daily for 4 days. Following the dosing regimen, animals were weighed and anesthetized with a ketamine: xylazine (2:1, V:V) mixture and a blood sample was collected by cardiac puncture. The animals were then sacrificed by asphyxiation with CO2, the uterus was removed through a midline incision, and a wet uterine weight was determined.
Uterine Eosinophil Peroxidase (EPO) Assay. Uteri were kept at 4° C. until time of enzymatic analysis. The uteri were then homogenized in 50 volumes of 50 mM Tris buffer (pH—8.0) containing 0.005% Triton X-100. Upon addition of 0.01% hydrogen peroxide and 10 mM O-phenylenediamine (final concentrations) in Tris buffer, increase in absorbance was monitored for one minute at 450 nm. The presence of eosonophils in the uterus is an indication of estrogenic activity of a compound. The maximal velocity of a 15 second interval was determined over the initial, linear portion of the reaction curve.

[2] = system: Uterine Eosinophil Peroxidase (EPO); assay: Uterine Eosinophil Peroxidase (EPO) Assay; type: in vivo, rat; conditions: stromal layer of ovariectomized rats
ovariectomized rats [3] = assay: Serum cholesterol in ovariectomized rat post-menopausal model; type: in vivo; conditions: OVX Sprague Dawley rats, oral, daily for 4 days
Protocol: (§3) In the examples illustrating the methods, a post-menopausal model was used in which effects of different treatments upon circulating lipids were determined.
as §1, §2
Cholesterol Analysis. Blood samples were allowed to clot at room temperature for 2 hours, and serum was obtained following centrifugation for 10 minutes at 3000 rpm. Serum cholesterol was determined using a Boehringer Mannheim Diagnostics high performance cholesterol assay. Briefly the cholesterol was oxidized to cholest-4-en-3-one and hydrogen peroxide. The hydrogen peroxide was then reacted with phenol and 4-aminophenazone in the presence of peroxidase to produce a p-quinone imine dye, which was read spectrophotemetrically at 500 nm. Cholesterol concentration was then calculated against a standard curve. The entire assay was automated using a Biomek Automated Workstation.

ovariectomized rats [4] = assay: Uterine weight in ovariectomized rat post-menopausal model (4-day dosing); type: in vivo; conditions: for Uterine Weight (% increase vs. OVX): OVX Sprague Dawley rats, oral, daily for 4 days
Protocol: as §3, §1, §2

[5] = system: MCF-7 breast adenocarcinoma cells; assay: MCF-7 Proliferation Assay; type: cell-based; conditions: Homo sapiens, MCF7; MCF-7 cells, 48 hours with drug, 4 hours thymidine pulse; read-out: IC50 (MCF-7 proliferation, tritiated thymidine)
Protocol: MCF-7 breast adenocarcinoma cells (ATCC HTB 22) were maintained in MEM (minimal essential medium, phenol red-free, Sigma, St. Louis, Mo.) supplimented with 10% fetal bovine serum (FBS) (V/V), L-glutamine (2 mM), sodium pyruvate (1 mM), HEPES {(N-[2-hydroxyethyl]piperazine-N′-[2-ethanesulfonic acid]10 mM}, non-essential amino acids and bovine insulin (1 ug/mL) (maintenance medium). Ten days prior to assay, MCF-7 cells were switched to maintenance medium supplemented with 10% dextran coated charcoal stripped fetal bovine serum (DCC-FBS) assay medium) in place of 10% FBS to deplete internal stores of steroids. MCF-7 cells were removed from maintenance flasks using cell dissociation medium (Ca++/Mg++ free HBSS (phenol red-free) supplemented with 10 mM HEPES and 2 mM EDTA). Cells were washed twice with assay medium and adjusted to 80,000 cells/ML. Approximately 100 μL (8,000 cells) were added to flat-bottom microculture wells (Costar 3596) and incubated at 37° C. in a 5% CO2 humidified incubator for 48 hours to allow for cell adherence and equilibration after transfer. Serial dilutions of drugs or DMSO as a diluent control were prepared in assay medium and 50 μL transferred to triplicate microcultures followed by 50 μL assay medium for a final volume of 200 μL. After an additional 48 hours at 37° C. in a 5% CO2 humidified incubator, microcultures were pulsed with tritiated thymidine (1 uCi/well) for 4 hours. Cultures were terminated by freezing at −70° C. for 24 hours followed by thawing and harvesting of microcultures using a Skatron Semiautomatic Cell Harvester. Samples were counted by liquid scintillation using a Wallac BetaPlace β counter. Results in Table 2 below show the ED50 for certain compounds of the present invention.

[6] = OVX Sprague Dawley rats, oral, daily for 4 days, dose 0.1 mg/kg
[7] = OVX Sprague Dawley rats, oral, daily for 4 days, dose 0.01 mg/kg
[8] = OVX Sprague Dawley rats, oral, daily for 4 days, dose 1.0 mg/kg

| SMILES | Uterine EPO (V. max) [1, 6] | Eosinophil infiltration into the uterus (in words) [2] | Serum Cholesterol (% decrease vs. OVX) (ovariectomized rats [3]; dose 0.1 mg/kg) | Uterine Weight (% increase vs. OVX) (ovariectomized rats [4]; dose 0.1 mg/kg) | Effect on uterine weight (in words) (ovariectomized rats [4]; compared to ovariectomized test animals, EE2 orally at 0.1 mg/kg/day) | Uterine EPO (V. max) [1, 7] | Uterine EPO (V. max) [1, 8] | Serum Cholesterol (% decrease vs. OVX) (ovariectomized rats [3]; dose 0.01 mg/kg) | Serum Cholesterol (% decrease vs. OVX) (ovariectomized rats [3]; dose 1.0 mg/kg) | IC50 [5] | Uterine Weight (% increase vs. OVX) (ovariectomized rats [4]; dose 0.01 mg/kg) | Uterine Weight (% increase vs. OVX) (ovariectomized rats [4]; dose 1.0 mg/kg) | Uterine EPO (V. max) ([1]; rat, in vivo, po, 0.01 mg/kg) | Uterine EPO (V. max) ([1]; rat, in vivo, po, 0.1 mg/kg) | Uterine EPO (V. max) ([1]; rat, in vivo, po, 1 mg/kg) |
| --- | --- | --- | --- | --- | --- | --- | --- | --- | --- | --- | --- | --- | --- | --- | --- |
| C#C[C@]1(O)CC[C@H]2[C@@H]3CCc4cc(O)ccc4[C@H]3CC[C@@]21C [EE2, 17α-ethynyl estradiol, reference compound] | 109.3 | substantial, expected increase in eosinophil infiltration | 85.9% | 171.5% | substantially greater than the uterine weight of ovariectomized test animals | – | – | – | – | – | – | – | – | – | – |
| CCOP(=O)(OCC)Oc1ccc(-c2sc3cc(OP(=O)(OCC)OCC)ccc3c2C(=O)c2ccc(OCCN3CCCCC3)cc2)cc1.Cl [Example 1] | 6.5 | – | 41.1% | 25.2% | – | 0.68 | 5.8 | 24.3% | 17.4% | 1 nM | 51.5% | 37.0% | – | – | – |
| Cl.O=C(c1ccc(OCCN2CCCCC2)cc1)c1c(-c2ccc(O)cc2)sc2cc(O)ccc12 [Raloxifene, 6-hydroxy-2-(4-hydroxyphenyl)-3-[4-(2-piperidinoethoxy)benzoyl]benzo[b]thiophene, hydrochloride, reference compound] | – | – | 75.6% | – | – | – | – | 65% | 71.1% | – | – | – | 2.2 | 4.3 | 3.9 |
| Cl.O=C(c1ccc(OCCN2CCCCC2)cc1)c1c(-c2ccc(OP(=O)(Oc3ccccc3)Oc3ccccc3)cc2)sc2cc(OP(=O)(Oc3ccccc3)Oc3ccccc3)ccc12 [Example 2] | 9.8 | – | 15.6% | 12.4% | – | 4 | 5.6 | −48.2% | 55.2% | 10 nM | 17.4% | 31.4% | – | – | – |
| Cl.O=C(c1ccc(OCCN2CCCCC2)cc1)c1c(-c2ccc(OP(=O)(c3ccccc3)c3ccccc3)cc2)sc2cc(OP(=O)(c3ccccc3)c3ccccc3)ccc12 [Example 3] | 7 | – | 37.6% | 47.1% | – | 3.7 | 6.7 | −25% | 57.5% | 1 nM | 22.5% | 24.7% | – | – | – |
